Measured values published in patent US7960339B2, “Antimicrobial peptides” (Österreichische Akademie der Wissenschaften, priority 2006, dated 2011).
Where two headings read alike, the source gives them in different places. Ends that are not written are not given here. Peptide text beside a SMILES is read from it. * marks the point of attachment. Butanoyl(2,2-Me2) = CCC(C)(C)C(=O)*; Octanoyl(6-Me) = CCC(C)CCCCC(=O)*

Columns and labels:
C. neoformans ATCC 32045 = assay type: cell-based
Procedure, shortened: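 Fungal inoculum was about 1×10^5 to 5×10^5 CFU/ml in 2×YM broth, added to peptides dispensed at 1 mg/ml to 1 μg/ml in twofold serial dilutions. After 72 hrs at 26° C, relative growth was read as OD620. IC50 values came from sigmoidal curve fitting.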

LPS Re595 = test: Local Shwartzmann reaction in rabbit (lipid A-induced hemorrhagic dermonecrosis); assay type: in vivo, New Zealand White rabbits; conditions: i.d. injection in shaved dorsal region; open necrosis observed after 72-96 hours; minimum 3 injections in minimum 3 rabbits
Experimental: (§1) The principle of lipid A-induced pro-inflammatory cytokine activity leading to hemorrhagic dermonecrosis (classical Shwartzmann reaction) was tested in rabbit, an animal model very close to humans in terms of sensitivity to LPS activity, and was compared to the inhibition of the lipid A-induced LAL enzymatic cascade activation leading to clot. Thereby, New Zealand White rabbits were injected in the shaved dorsal region with S. minnesota Re595 lipid A alone or with peptide 1:100 (w/w) (5 μg in 0.2 ml saline buffer; route i.d.). […] Polymyxin B (PmB) was used as a control.

LPS S. Minnesota Re595 = test: Endpoint LAL activity (Limulus gel-clotting test), inhibition of lipid A-induced LAL enzymatic cascade; assay type: biochemical; conditions: sensibility 0.125 EU/ml, peptide:LPS 100:1 (w/w), minimum of 6 tests in triplicate
Experimental: as §1

MonoMac6 cells = test: Release of TNFα from MonoMac6 cells stimulated by bacteria killed with antibiotics or peptides (ELISA); assay type: cell-based; conditions: E. coli strain 0:111 incubated over night with agent, then 15 hours on 10^5 MonoMac6 cells; FIG. 5
Experimental: Bacteria can be killed by different antibiotics, targeting different molecules essential for bacterial survival. When Gram-negative bacteria are killed, released LPS can stimulate production of cytokines, such as TNFα, or other inflammatory mediators. Comparison of well-established antimicrobial agents acting through different cellular targets with compounds of this invention were done in the following manner: bacteria (E. coli strain 0:111) were grown in LB medium to the absorbance at 600 nm of 0.4 and diluted 2500 fold in RPMI medium with added glucose. Different concentrations of antibiotics or peptides from this invention were added and incubated over night. 80 μl of cell suspension was added to the 100 μl containing 10^5 MonoMac6 cells and after 15 hours the release of TNFα to the medium was determined using ELISA test.

E. coli (strain 0:111) = test: Antimicrobial assay with peptide immobilized on magnetic particles; assay type: cell-based; conditions: over night
Experimental: Peptide P2-32 (500 μg) was covalently bound to the cyanuric chloride-activated magnetic particles (10 mg) (Chemicell, Product number 1314) using phosphate buffer saline pH=7.5. After mixing the suspension on a shaker for 2 hours at room temperature the blocking buffer (PBS pH=7.5 and 2% ethanolamine) were added and mixed the suspension on a shaker for 30 minutes at room temperatures. The particles were washed twice with PBS. Immobilized peptides were tested against E. coli (strain 0:111) grown in LB medium to the absorbance at 600 nm of 0.4 and diluted 2500 fold in LB medium. Different concentrations of magnetic particles immobilized with peptides were added and incubated over night.

E. coli LPS = test: Mouse model of acute endotoxemia (LPS plus galactosamine); assay type: in vivo, ICR-CD1 mice; conditions: 150 μg intraperitoneal immediately after 0.3 μg E. coli LPS + 18 mg galactosamine; monitored until 168 hours
Experimental: Mice are remarkably resistant to LPS-mediated septic shock. However, the sensitivity of mice to endotoxin can be potentiated by coinjecting LPS with galactosamine. Groups of 16-18 female ICR-CD1 mice of 20-25 g of weight were intraperitoneally injected with 200 μl of pyrogen-free saline containing a mixture of 0.3 μg of E. coli LPS and 18 mg of galactosamine. Previous experiments allowed to determine that such a combination was lethal for 90% (LD90) of the animals 48 h after the injection. Immediately after this challenge, mice received a second intraperitoneal injection at a different site of the abdomen containing 150 μg of the peptide dissolved in 150 μl of 10% DMF pyrogen-free saline. In all the experiments a group of mice was left untreated whereas another group received 150 μg of polymyxin B. Mortality of the animals was monitored at daily intervals until 168 hours postchallenge.

[1] = 50% growth inhibition, OD620, 72 hrs at 26° C., 2×YM broth
[2] = lowest concentration that resulted in 2% growth, OD620, 72 hrs at 26° C., 2×YM broth

Molecule	average IC50 (C. neoformans ATCC 32045; [1]) [µg/mL]	average MIC (C. neoformans ATCC 32045; [2]) [µg/mL]	Local Shwartzmann reaction in rabbit peptide: LPS Re595 100:1 (w/w) (LPS Re595)	Endpoint LAL activity peptide: LPS Re595 100:1 (w/w) (LPS S. Minnesota Re595)	release of TNFα / stimulation of the monocytes (MonoMac6 cells)	also measured
CC[C@H](C)[C@H](NC(=O)[C@H](CCCNC(=N)N)NC(=O)[C@@H](NC(=O)[C@H](CCCNC(=N)N)NC(=O)[C@H](Cc1c[nH]c2ccccc12)NC(=O)[C@H](Cc1ccccc1)NC(=O)[C@@H]1CCCN1)[C@@H](C)CC)C(=O)N[C@@H](CCCNC(=N)N)C(=O)N[C@@H](CCCNC(=N)N)C(N)=O [VS1-22, PFWRIRIRR-NH2] (H-PFWRIRIRR-NH2; N-terminus assumed)	2	8	NEGATIVE	NEGATIVE	significantly inhibited the release of TNFα	–
CC[C@H](C)[C@H](NC(=O)[C@H](CCCNC(=N)N)NC(=O)[C@H](CCCNC(=N)N)NC(=O)[C@H](CCC(N)=O)NC(=O)[C@H](Cc1c[nH]c2ccccc12)NC(=O)[C@@H](N)Cc1ccccc1)C(=O)N[C@@H](CCCNC(=N)N)C(=O)N[C@@H](CCCNC(=N)N)C(=O)N[C@@H](Cc1c[nH]c2ccccc12)C(=O)N[C@@H](CCCNC(=N)N)C(=O)N[C@@H](CCCNC(=N)N)C(N)=O [VS1-18, FWQRRIRRWRR-NH2] (H-FWQRRIRRWRR-NH2; N-terminus assumed)	7	32	NEGATIVE	NEGATIVE	–	–
CC[C@H](C)[C@H](NC(=O)[C@H](CCCNC(=N)N)NC(=O)[C@@H](NC(=O)[C@H](CCCNC(=N)N)NC(=O)[C@H](Cc1c[nH]c2ccccc12)NC(=O)[C@H](Cc1ccccc1)NC(=O)[C@@H]1CCCN1C(=O)C(C)(C)CC)[C@@H](C)CC)C(=O)N[C@@H](CCCNC(=N)N)C(=O)N[C@@H](CCCNC(=N)N)C(N)=O [VS1-52, 2,2-dimethylbutanoyl PFWRIRIRR-NH2] ({Butanoyl(2,2-Me2)}-PFWRIRIRR-NH2)	2	4	NEGATIVE	NEGATIVE	–	–
penicilin	–	–	–	–	high stimulation of the monocytes	–
CCC(C)CCCCC(=O)N1CCC[C@H]1C(=O)N[C@@H](Cc1ccccc1)C(=O)N[C@@H](Cc1c[nH]c2ccccc12)C(=O)N[C@@H](CCCNC(=N)N)C(=O)N[C@H](C(=O)N[C@@H](CCCNC(=N)N)C(=O)N[C@H](C(=O)N[C@@H](CCCNC(=N)N)C(=O)N[C@@H](CCCNC(=N)N)C(N)=O)[C@@H](C)CC)[C@@H](C)CC (some centres unmarked) [VS1-53, 6-methyloctanoyl PFWRIRIRR-NH2] ({Octanoyl(6-Me)}-PFWRIRIRR-NH2)	–	–	–	–	significantly inhibited the release of TNFα	average IC50 (C. neoformans ATCC 32045; ATCC 32045, 72 h): 6 µg/mL; average MIC (C. neoformans ATCC 32045; ATCC 32045, 72 h): 16 µg/mL
FIWRWRWR-NH2 (also: bound to magnetic particles) [Peptide P2-32]	–	–	–	–	–	bacterial growth (E. coli (strain 0:111); 0.25 mg immobilized magnetic particles, 100 μl diluted E. coli in LB): not-inhibited; bacterial growth (E. coli (strain 0:111); 0.5 mg immobilized magnetic particles, 100 μl diluted E. coli in LB): not-inhibited; bacterial growth (E. coli (strain 0:111); 1 mg immobilized magnetic particles, 100 μl diluted E. coli in LB): inhibited; bacterial growth (E. coli (strain 0:111); 2.5 mg immobilized magnetic particles, 100 μl diluted E. coli in LB): inhibited; bacterial growth (E. coli (strain 0:111); 5 mg immobilized magnetic particles, 100 μl diluted E. coli in LB): inhibited; bacterial growth (E. coli (strain 0:111); 50, 25 and 10 mg/ml concentrations of immobilized magnetic particles): prevented bacterial growth
CC[C@H](C)[C@H](NC(=O)[C@H](CC(N)=O)NC(=O)[C@H](CCCNC(=N)N)NC(=O)[C@H](CCC(N)=O)NC(=O)[C@H](Cc1c[nH]c2ccccc12)NC(=O)[C@H](Cc1ccccc1)NC(=O)C(C)(C)CC)C(=O)N[C@@H](CCCNC(=N)N)C(=O)N[C@@H](CCCCN)C(=O)N[C@@H](Cc1c[nH]c2ccccc12)C(=O)N[C@@H](CCCNC(=N)N)C(N)=O [VS1-42, 2,2-dimethylbutanoyl FWQRNIRKWR-NH2] ({Butanoyl(2,2-Me2)}-FWQRNIRKWR-NH2)	6	16	NEGATIVE	NEGATIVE	–	–
O=C(N[C@H](CO)[C@H](O)c1ccc([N+](=O)[O-])cc1)C(Cl)Cl [chloramphenicol]	–	–	–	–	high stimulation of the monocytes	–
polymyxin B [PmB, reference compound]	–	–	NEGATIVE	NEGATIVE	significantly inhibited the release of TNFα	protection against endotoxic shock (mortality) (E. coli LPS): did not confer significant protection
